This is an account of results in patent publication US20180371408A1, “CELL CULTURES AND METHODS OF USE” (priority 2017, published 2018).

The subject of data set [1] is testicular cell co-culture (C18-4, TM4, TM3). The experiment in a line: BrdU incorporation (DNA synthesis) and cell cycle HCA. Format: cell-based, mouse. The protocol: (§1) BrdU incorporation, cell fixation, BrdU, and DNA staining followed the previously published protocol (Liang, et al., 2017b). the determination of DNA damage responses and cytoskeleton analysis was conducted after cell fixation. The cells were then permeabilized by a 0.1% Triton X-100 in PBS, and then incubated with a mouse-anti phosphor-histone H2AX (Ser139) (γ-H2AX) overnight at 4° C. […] Finally, prior to acquiring the images, the cells were stained with Alexa Fluor 488 Phallodin for 30 minutes to stain the F-actin (Liang, et al., 2017)
(§2) Multi-Channel images were analyzed using HCS Studio™2.0 TargetActivation BioApplication. Multiple parameters of nuclei were characterized in HCA, including nuclei number, nuclear area, shape, and total DNA intensity. Nuclear shape measurements included P2A, a ratio of the nuclear perimeter squared to 4it*nucleus area (perimeter^2/4π*enuclear area) to evaluate nuclear smoothness, and LWR, a ratio of the nuclear length to width, to measure nuclear roundness. For a fairly round and smooth object, the values for P2A and LWR are around 1.0. Total intensity was defined as total pixel intensity within a cell in the respective channel. The total intensities of BrdU, γ-H2AX, and F-actin of the individual cells were also quantified. With forty-nine 20× images acquired from each well, at least 1,000 cells were analyzed per well, and single-cell based data were extracted for further analysis. The experiments were performed with at least four biological replicates and repeated twice.
(§3) Data were presented as mean±standard deviation (SD).

For data set [2] the test system is unchanged. The experiment in a line: High-content image analysis of nuclear morphology and cell number. Format: cell-based, mouse. On the procedure: as §1
(§4) Multi-channel images were then automatically acquired using an Arrayscan™ VTI HCS reader (Thermo Scientific, MA) with the HCS Studio 2.0 Target Activation BioApplication module. Forty-nine fields per well were acquired at 20× and 40× magnification using a Hamamatsu ROCA-ER digital camera in combination with a 0.63× coupler and Carl Zeiss microscope optics in auto-focus mode. Image smoothing was conducted in order to reduce object fragmentation prior to the primary object identification that takes place in the first channel. Channel one (Ch1) applied the BGRFR 386_23 for Hoechst 33342 that was used for auto-focus, object identification, and segmentation. The border objects were then excluded. Channel two (Ch2) applied applied the BGRFR 549_15, which identified the BrdU staining and BGRFR 485_20 to identify the F-actin staining. BGRFR 650_13 was applied in Channel three (Ch3) and identified the γ-H2AX staining.
as §2, §3

A further data set deals with Sertoli cells (TM4). In words: cells. Format: cell-based, mouse. The conditions noted are these: Mus musculus, read-out: IC50.
Data set [3] has as its system testicular co-culture: spermatogonial cells (C18-4), Sertoli cells (TM4), Leydig cells (TM3). The conditions noted are these: co-culture; for effect on cell viability (NR uptake), in words: 48 h treatment, FIG. 6; for in vitro call as reproductive toxicant: 48 h, based on cluster analysis.
The test system of data set [4] is testicular cell co-culture (C18-4, TM4, TM3). In words: HCA of F-actin cytoskeleton and γ-H2AX DNA damage response. Format: cell-based, mouse. The conditions noted are these: for effect on F-actin cord-like structures, in words: FIG. 14A: BPA and BPS 100 μM, BPAF 5 and 15 μM, TBBPA 15 μM, 48 h; for γ-H2AX expression, in words: co-cultures, up to 100 μM; for doses inducing DNA damage response (γ-H2AX): co-culture model. The protocol:
as §1, §4, §2, §3

The subject of data set [5] is testicular co-culture: spermatogonial cells (C18-4), Sertoli cells (TM4), Leydig cells (TM3). The experiment in a line: cells. The conditions noted are these: Mus musculus.
Data set [6] has as its system testicular cell co-culture (C18-4, TM4, TM3). In words: Machine learning-based HCA phenotype classification (multinucleated cells, M phase, stretching F-actin filaments). Format: cell-based, mouse. The conditions noted are these: for induction of multinucleated cells, in words: FIG. 12F.
Excerpt: Our processing pipeline included cell segmentation, localization, and measurements of multiple features of single cells. This pipeline identified the nuclei from the Hoechst 33342 (nuclei) channel and used the nuclei as primary objects to assist in the identification of secondary objects, which included F-actin and γ-H2AX in each cell. The pipeline (which is freely available from the authors upon request) has the ability to measure over 200 cellular features, including size, shape, intensity, and texture of nuclei, intensity, and texture of F-actin, and intensity of γ-H2AX in a single cell. In order to measure the nuclear area and shape of a cell, multiple features such as object area, perimeter eccentricity and orientation had to be extracted. Object intensity was determined through measurements of various intensity statistics including the integrated intensity, the mean intensity, and the maximal or minimal pixel intensities within an object or on the object's edge. To quantify the object's texture, Haralick texture features derived from the co-occurrence matrix were employed to calculate the occurrence of pairs of pixels with specific intensity values and spatial relationships in an image. The texture features were described by homogeneity, local variation, randomness, and the contrast of object texture. Supervised ML was performed with the CellProfiler Analyst via the “RandomForest Classifier” algorithm (Broad Institute, MA) (Jones et al., 2008). RandomForest is an ensemble learning method that constructs decision trees with an averaged prediction, and is robust in high-dimensional data analysis with low bias (Breiman, 2001).
In the current study, we quantified three key phenotypic changes in the co-culture model. The first change we noticed was the induction of multinucleated cells, a unique toxicity marker for BPAF observed in spermatogonia cells in the previous study, was once again examined in the current co-culture testicular cell model. As depicted in FIG. 10, the multinucleated phenotype was identified as a cell with giant nuclei and irregular nuclear contour. […] Mitotic phenotypes were identified as cells with small condensed nuclei with a round shape (prometaphase), condensed nuclei with shallow concavities (metaphase), and nuclei with separated and aligned chromosomes (anaphase, telophase, and late telophase). […] Cells with phenotypic 3D structure have F-actin bundles stretching across their cytoplasm. During the training process, a small set of unclassified objects were manually sorted into two classes, including non-multinucleated cells or multinucleated cells, cells not in M phases or cells in M phase, and cells with or without stretching F-actin filaments. The maximum number of features was set as 20 in order to generate rules for phenotypic classification, and those features were automatically selected by the RandomForest classifier to capture the subtle differences between the classes. The phenotype classification was based on the images acquired by Arrayscan™ VTI HCS reader, and multiple features were measured by CellProfiler. The input features included values describing nuclei size and shape, DNA intensity and texture, F-actin intensity and texture, and γ-H2AX intensity at the single-cell level. For multinucleated cells and M phase cells, the training set was established by visual examination of the images in the nuclei channel. For a cell with stretching F-actin filaments, initial manual classification during the training process was based on multi-channel images, including nuclei, F-actin and γ-H2AX. The results were presented in terms of the number of cells in predefined classes and total cell number per image field. The field-based data were averaged for the well-based condition.
as §3

Like-named read-outs stand apart in the source and are kept apart here.

As to `CC(C)(c1ccc(O)cc1)c1ccc(O)cc1` [BPA, 4,4′-(propane-2,2-diyl) diphenol], the “doses with significant decrease in BrdU-positive cells” value in data set [1] (24 and 48 h) worked out at 100 µM. Also, the “doses with significant increase in nuclear area” value in data set [2] (24, 48, and 72 h) came to 100 µM. Further, the “doses significantly reducing LWR (nuclear roundness)” value (shortened to “doses significantly reducing LWR”) in data set [2] (48 and 72 h) is ≥ 25 µM. In data set [2] (24 h), the “doses significantly reducing LWR” value is ≥ 50 µM, the “doses significantly reducing P2A (nuclear smoothness)” value (“doses significantly reducing P2A” for short) is 50 µM, the “doses significantly reducing cell number” value came out at 100 µM and the “doses with significant decrease in nuclear area” value is ≥ 10 µM. In the data set with Sertoli cells (TM4) (24 h), the IC50 was 89 µM. The IC50 in the data set with Sertoli cells (TM4) (48 h) came out at 79 µM. Also, the “effect on cell viability (NR uptake), in words” value in data set [3] is on record as “significant dose-dependent decrease of cell viability”. Further, the “doses with significant increase in F-actin total intensity” value in data set [4] (72 h) was 100 µM. For the same compound, in data set [4], the “effect on F-actin cord-like structures, in words” value was “dramatically perturbed these structures” and the “γ-H2AX expression, in words” value is reported as “did not induce γ-H2AX expression”. In data set [5] (24 h), this compound returned an IC50 of 210 µM. The compound further displayed an IC50 in data set [5] (48 h) of 186 µM. The “doses with significant induction of cells in M phase” value (shortened to “doses with significant induction”) in data set [6] (48 and 72 h) is 100 µM. In data set [6] (24 h), the “doses with significant decrease of cells with stretching F-actin filaments (phenotypic 3D structure)” value was 100 µM. The “induction of multinucleated cells, in words” value (“induction … in words” for short) in data set [6] is “did not induce multinucleation”.

In the case of `Oc1ccc(C(c2ccc(O)cc2)(C(F)(F)F)C(F)(F)F)cc1` [BPAF, 4,4′-(Hexafluoroisopropylidene)diphenol], the “HCA-based cell cycle analysis, in words” value in data set [1] is “significantly induced G2/M phase arrest”. Further, in data set [1] (72 h), the “dose inducing BrdU-positive cells” value turned out to be 10 µM and the “doses with significant decrease in BrdU-positive cells” value was 15 µM. Besides, the “doses reducing cell number” value in data set [2] (24, 48, and 72 h) is ≥ 2.5 µM. In addition, in data set [2] (24 and 48 h), the “doses significantly increasing LWR” value stood at 5 µM and the “doses significantly increasing P2A” value was found to be 5 µM. In addition, the “doses with significant increase in nuclear area” value in data set [2] (24 h) amounted to 10 µM. Besides, in data set [2] (72 h), the “doses significantly reducing LWR” value turned out to be 15 µM and the “doses significantly reducing P2A” value is 15 µM. The concentration for half-maximal inhibition (IC50) with Sertoli cells (TM4) (24 h) is 55.4 µM. Further, in the data set on Sertoli cells (TM4) (48 h), the IC50 stood at 22.3 µM. Moreover, in data set [3], the “in vitro call as reproductive toxicant” value was “positive”. In data set [4], the “effect on F-actin cord-like structures, in words” value is given as “dramatically perturbed these structures” and the “doses inducing DNA damage response (γ-H2AX)” value is ≥ 5 µM. This compound also returned a 50% inhibitory concentration (IC50) in data set [5] (24 h) of 78 µM. In data set [5] (48 h), this compound registered an IC50 of 50 µM. For the same compound, the “Spearman correlation of total F-actin and γ-H2AX intensity, multinucleated versus non-multinucleated cells” value in data set [6] (5 μM for 24, 48, and 72 h) is on record as “higher resulting positive correlation”. In addition, the “dose significantly inducing multinucleated cells” value in data set [6] (24, 48, and 72 h) was found to be 5 µM. Moreover, the “doses with significant induction” value in data set [6] (24 h) was determined as 10 µM.

`O=S(=O)(c1ccc(O)cc1)c1ccc(O)cc1` [BPS, 4,4′-Sulfonyldiphenol]: the “doses with significant decrease in BrdU-positive cells” value in data set [1] (24 h) was found to be 100 µM. In addition, the “doses significantly reducing cell number” value in data set [2] (24 h) was 100 µM. For the same compound, the “doses with significant increase in nuclear area” value in data set [2] (72 h) came out at 100 µM. Also, the 50% inhibitory concentration (IC50) was 211 µM in the data set on Sertoli cells (TM4) (24 h), 74.3 µM in the data set on Sertoli cells (TM4) (48 h), 574 µM in data set [5] (24 h) and 341 µM in data set [5] (48 h). In data set [3], the “in vitro call as reproductive toxicant” value was “positive”. The “effect on cell viability (NR uptake), in words” value in data set [3] is recorded as “significant dose-dependent decrease of cell viability”. Also, the “doses with significant increase in F-actin total intensity” value in data set [4] (24 and 48 h) is 100 µM. Also, in data set [4], the “effect on F-actin cord-like structures, in words” value was “induced no notable changes”. Besides, in data set [4], the “γ-H2AX expression, in words” value was “did not induce γ-H2AX expression”. Besides, the “doses with significant induction” value in data set [6] (48 and 72 h) is 100 µM. Further, in data set [6] (72 h), the “doses with significant decrease of cells with stretching F-actin filaments (phenotypic 3D structure)” value is 100 µM. Moreover, the “induction … in words” value in data set [6] is “did not induce multinucleation”.

For `CC(C)(c1cc(Br)c(O)c(Br)c1)c1cc(Br)c(O)c(Br)c1` [TBBPA, 2,2′,6,6′-Tetrabromo-4,4′-isopropylidenediphenol], in data set [1] (48 and 72 h), the “doses with significant decrease in BrdU-positive cells” value turned out to be 15 µM. The “doses reducing cell number” value in data set [2] (24, 48, and 72 h) is ≥ 10 µM. Moreover, the “doses with significant increase in nuclear area” value in data set [2] (24, 48, and 72 h) is 15 µM. Further, in data set [2] (24 and 48 h), the “doses significantly increasing P2A” value came out at 15 µM. Besides, the “doses significantly reducing LWR” value in data set [2] (72 h) amounted to 15 µM. The “doses significantly reducing P2A” value in data set [2] (72 h) was 15 µM. The 50% inhibitory concentration (IC50) is 60 µM with Sertoli cells (TM4) (24 h); 38 µM with Sertoli cells (TM4) (48 h); 70 µM in data set [5] (24 h); 58 µM in data set [5] (48 h); ≤ 100 µM in data set [5] (read-out: IC50 values (mostly)). Moreover, in data set [3], the “in vitro call as reproductive toxicant” value is listed as “positive”. The “effect on F-actin cord-like structures, in words” value in data set [4] is listed as “dramatically perturbed these structures”. Moreover, in data set [4], the “doses inducing DNA damage response (γ-H2AX)” value was 15 µM. Besides, the “doses with significant induction” value in data set [6] (24, 48, and 72 h) was 15 µM. Further, the “induction … in words” value in data set [6] is listed as “did not induce multinucleation”.

One may read the IC50 as the concentration needed to halve the response being measured.
